One series deals with M. luteus B-1314. It counts as cell-based, Micrococcus luteus. The conditions noted are these: Mueller-Hinton broth, 10^6 CFU/ml, peptide diluted in 0.1% BSA, 37°C, 24 h, median of at least 3 experiments in triplicate. The method, then: (§1) Antimicrobial assay was performed as described previously ([Panteleev et al., 2017b]). Briefly, mid-log phase bacterial test cultures were diluted with the 2× Mueller-Hinton broth (MH, Sigma) supplemented with 1.8% NaCl or without it so that to reach a final cell concentration of 10^6 CFU/ml. 50 μl aliquots of the obtained bacterial suspension were added to 50 μl of the peptide solutions serially diluted with 0.1% water solution of bovine serum albumin (BSA) in 96-well flat-bottom polystyrene microplates (Eppendorf #0030730011). After incubation at 37°C and 900 rpm for 24 h the minimum inhibitory concentrations (MIC) were determined as the lowest peptide concentrations that prevented growth of a test microorganism observed as visible turbidity. The results were expressed as the median values determined on the basis of at least three independent experiments performed in triplicate.

For the next series, the system named is B. subtilis B-886. It counts as cell-based, Bacillus subtilis. The conditions noted are these: Mueller-Hinton broth, 10^6 CFU/ml, 0.1% BSA, 37°C, 24 h, median of at least 3 experiments. The procedure: as §1
Another series deals with S. aureus 209P. It counts as cell-based, Staphylococcus aureus. The conditions noted are these: Mueller-Hinton broth, 10^6 CFU/ml, 0.1% BSA, 37°C, 24 h, median of at least 3 experiments. The method, then: as §1
In another series the test system is P. aeruginosa PAO1. It counts as cell-based, Pseudomonas aeruginosa. The conditions noted are these: Mueller-Hinton broth, 10^6 CFU/ml, 0.1% BSA, 37°C, 24 h, median of at least 3 experiments. The method, then: as §1
The test system of series [1] is A. baumannii (XDR CI 2675). Briefly: microbe, parasite or virus in culture. It counts as cell-based, Acinetobacter baumannii. The conditions noted are these: read-out: Minimum inhibitory concentration. The method, then: as §1
The subject of the next series is K. pneumoniae (CI 287). It counts as cell-based, Klebsiella pneumoniae. The note with it: Mueller-Hinton broth, 10^6 CFU/ml, 0.1% BSA, 37°C, 24 h, median of at least 3 experiments. The method, then:
as §1

A further series has as its system E. coli C600. It counts as cell-based, Escherichia coli. The conditions noted are these: Mueller-Hinton broth, 10^6 CFU/ml, 0.1% BSA, 37°C, 24 h, median of at least 3 experiments. The method, then: as §1
The next series relates to E. coli ML-35p. It counts as cell-based, Escherichia coli. The note with it: Mueller-Hinton broth, 10^6 CFU/ml, 0.1% BSA, 37°C, 24 h, median of at least 3 experiments. The procedure: as §1
For series [2], the system named is all the cells tested (hRBC, HEF, HEK293T). In words: Hemolysis and cytotoxicity assay. It counts as cell-based, human. The note with it: positive control. The procedure: Hemolytic activity of the peptides was tested against the fresh suspension of human red blood cells (hRBC) using the hemoglobin release assay as described previously ([Panteleev et al., 2016]). Three experiments were performed with the hRBC from blood samples obtained from independent donors. The obtained data were represented as average means with standard deviations. The cytotoxicity of the peptides against HEK293T (transformed human embryonic kidney cells) and HEF (human embryonic fibroblasts) cell lines was studied using the colorimetric 3-(4,5-dimethylthiazol-2-yl)-2,5-diphenyltetrazolium bromide (MTT) dye reduction assay according to ([Panteleev and Ovchinnikova, 2017]). Three independent experiments were performed for each peptide. Half maximal inhibitory concentration (IC50) values were estimated as described previously ([Kuzmin et al., 2018]).

Another series concerns E. cloacae (XDR CI 4172). Briefly: microbe, parasite or virus in culture. The note with it: Enterobacter cloacae; Table S2, XDR clinical isolate; NaCl content of medium not stated; read-out: Minimum inhibitory concentration. It counts as cell-based, Enterobacter cloacae. The method, then: as §1
A further series deals with E. coli (XDR CI 1057). Briefly: microbe, parasite or virus in culture. It counts as cell-based, Escherichia coli. The conditions noted are these: Escherichia coli, read-out: Minimum inhibitory concentration. The method, then:
as §1

Series [3] relates to K. pneumoniae (XDR CI 1056). Briefly: microbe, parasite or virus in culture. It counts as cell-based, Klebsiella pneumoniae. The note with it: Klebsiella pneumoniae; Table S2, XDR clinical isolate; NaCl content of medium not stated; read-out: Minimum inhibitory concentration. The method, then:
as §1

In series [4] the test system is P. aeruginosa (XDR CI 1049). Briefly: microbe, parasite or virus in culture. It counts as cell-based, Pseudomonas aeruginosa. The note with it: Pseudomonas aeruginosa; Table S2, XDR clinical isolate; NaCl content of medium not stated; read-out: Minimum inhibitory concentration. The procedure:
as §1

Series [5] concerns P. mirabilis (XDR CI 3423). Briefly: microbe, parasite or virus in culture. It counts as cell-based, Proteus mirabilis. The conditions noted are these: Proteus mirabilis; Table S2, XDR clinical isolate; NaCl content of medium not stated; read-out: Minimum inhibitory concentration. The procedure: as §1
The subject of series [6] is in vitro translation of EGFP, E. coli BL21 Star (DE3) cell lysate. Briefly: Cell-free protein expression assay (EGFP). It counts as biochemical, Escherichia coli. The conditions noted are these: EGFP fluorescence, 1.5 h, 30°C. The procedure:
The cell lysate used for translation inhibition assay was prepared using the E. coli BL21 Star (DE3) cell culture grown at 30°C in the 2x YTPG liquid medium (1% yeast extract, 1.6% tryptone, 0.5% NaCl, 22 mM NaH2PO4, 40 mM Na2HPO4, 0.1 M glucose). The chromosome of DE3 strains contains a gene encoding T7 RNA polymerase under control of the lacUV5 promoter. The bacterial culture was grown to OD600 0.8–1.0, then T7 RNA polymerase gene was induced by adding 0.2 mM IPTG. Bacteria were harvested at OD600 5.0–6.0 by centrifugation (3000 g, 30 min, 4°C). The bacterial pellet was washed three times by suspending it in four volumes of wash buffer (10 mM Tris-acetate buffer, pH 8.2, 60 mM potassium glutamate, 14 mM magnesium acetate, 1 mM DTT), then resuspended in one volume of the same buffer (1 ml per 1 g of wet cell mass) and disrupted by sonication at 5–15°C. The total cell lysate was centrifuged at 15000 g (30 min, 4°C). The supernatant was split into aliquots and stored at -70°C.
In order to investigate the effect of AMPs on the translation process, the peptides were added to a cell-free protein synthesis (CFPS) reaction mix with a plasmid encoding EGFP variant (F64L, S65T, Q80R, F99S, M153T, and V163A) under a control of the T7 promoter. The reaction mix consisted of the following components: 1.2 mM ATP, 0.8 mM UTP, 0.8 mM GTP, 0.8 mM CTP, 2 mM of each of 20 proteinogenic amino acids, 1.5 mM spermidine, 1 mM putrescine dihydrochloride, 0.06647 mM calcium folinate, 170 ng/ml tRNA from the E. coli MRE 600 strain, 0.33 mM NAD, 120 mM HEPES-KOH (pH 8.0), 10 mM ammonium glutamate, 175 mM potassium glutamate, 60 mM glucose, 15 mM magnesium glutamate, 2% PEG 8000, 25% E. coli BL21 Star (DE3) cell lysate, 10 ng/μl plasmid DNA. The reaction volume was 50 μl. […] Fluorescence of the sample without inhibitor was set as the 100% value. […] Fluorescence of the synthesized EGFP was measured with the microplate reader AF2200 (λExc = 488 nm, λEm = 510 nm). […] IC50 values were determined by interpolation from non-linear regression curves using the GraphPad Prism 6.0 software.

Values after ≈ are worked out from the molar mass of the structure shown. Like-named read-outs stand apart in the source and are kept apart here.

By IC50 is commonly meant the concentration needed to halve the response being measured.

In the case of `CC[C@H](C)[C@H](NC(=O)CN)C(=O)NCC(=O)N[C@@H](C)C(=O)N[C@H](C(=O)N[C@@H](CC(C)C)C(=O)N[C@@H](CCCCN)C(=O)N[C@H](C(=O)N[C@@H](CC(C)C)C(=O)N[C@H](C(=O)N[C@H](C(=O)NCC(=O)N[C@@H](CC(C)C)C(=O)N1CCC[C@H]1C(=O)N[C@@H](C)C(=O)N[C@@H](CC(C)C)C(=O)N[C@H](C(=O)N[C@@H](CO)C(=O)N[C@@H](Cc1c[nH]c2ccccc12)C(=O)N[C@H](C(=O)N[C@@H](CCCCN)C(=O)N[C@@H](CCCNC(=N)N)C(=O)N[C@@H](CCCCN)C(=O)N[C@@H](CCCNC(=N)N)C(=O)N[C@@H](CCC(N)=O)C(=O)N[C@@H](CCC(N)=O)C(N)=O)[C@@H](C)CC)[C@@H](C)CC)[C@@H](C)O)[C@@H](C)O)C(C)C)C(C)C` [Melittin, reference compound], the Minimum inhibitory concentration in the series on M. luteus B-1314 (0.9% NaCl) turned out to be 0.5 µM (≈ 1.42 µg/mL); in the series with M. luteus B-1314 (Without NaCl), 0.25 µM (≈ 0.712 µg/mL); with B. subtilis B-886 (0.9% NaCl) it was 0.5 µM (≈ 1.42 µg/mL); with B. subtilis B-886 (Without NaCl) it was 0.5 µM (≈ 1.42 µg/mL); in the series with S. aureus 209P (0.9% NaCl), 16 µM (≈ 45.5 µg/mL); in the series on S. aureus 209P (Without NaCl), 2 µM (≈ 5.69 µg/mL). Further, the Minimum inhibitory concentration came out at 8 µM (≈ 22.8 µg/mL) in the series with P. aeruginosa PAO1 (0.9% NaCl); 4 µM (≈ 11.4 µg/mL) in the series on P. aeruginosa PAO1 (Without NaCl); 16 µM (≈ 45.5 µg/mL) in the series on K. pneumoniae (CI 287) (0.9% NaCl); 4 µM (≈ 11.4 µg/mL) with K. pneumoniae (CI 287) (Without NaCl); 8 µM (≈ 22.8 µg/mL) in the series on E. coli C600 (0.9% NaCl); 4 µM (≈ 11.4 µg/mL) with E. coli C600 (Without NaCl). Further, the figures for the Minimum inhibitory concentration in the series on E. coli ML-35p (0.9% NaCl) and with E. coli ML-35p (Without NaCl) were 8 µM (≈ 22.8 µg/mL) and 2 µM (≈ 5.69 µg/mL), respectively. Also, the MIC in series [1] (0.9% NaCl, Mueller-Hinton broth, 10^6 CFU/ml, 0.1% BSA, 37°C, 24 h, median of at least 3 experiments) was 8 µM (≈ 22.8 µg/mL); in [1] (Without NaCl, Mueller-Hinton broth, 10^6 CFU/ml, 0.1% BSA, 37°C, 24 h, median of at least 3 experiments), 2 µM (≈ 5.69 µg/mL). In addition, the “concentrations that completely damaged all the cells tested” value in [2] was less than 2500 nM.
As for `C[C@@H](O)[C@H]1C(=O)N2C(C(=O)O)=C(S[C@@H]3CN[C@H](C(=O)N(C)C)C3)[C@H](C)[C@H]12` [Meropenem, reference compound], the MIC is 0.5 µM (≈ 0.192 µg/mL) in series [1] (Acinetobacter baumannii, Table S2, XDR clinical isolate, NaCl content of medium not stated); 0.5 µM (≈ 0.192 µg/mL) in the series with E. cloacae (XDR CI 4172); 0.125 µM (≈ 0.0479 µg/mL) with E. coli (XDR CI 1057); 16 µM (≈ 6.14 µg/mL) in series [3]; 64 µM (≈ 24.5 µg/mL) in [4]; greater than 128 µM in series [5].
Turning to `[H]/N=C(/N)N[C@H]1[C@H](O)[C@@H](O)[C@H](O[C@@H]2O[C@@H](C)[C@](O)(C=O)[C@H]2O[C@@H]2O[C@@H](CO)[C@H](O)[C@@H](O)[C@@H]2NC)[C@@H](N/C(N)=N\[H])[C@@H]1O` [streptomycin], the “concentration of full inhibition of in vitro protein synthesis” value in series [6] is greater than 1 µM. Also, the IC50 in series [6] (at least 3 independent experiments, read-out: IC50, inhibition of in vitro protein synthesis) turned out to be 200 nM.
On to KWCFRVCYRGICYRRCR [Tachyplesin-1], for which the “inhibition of protein biosynthesis, in words” value in series [6] was “comparable level of inhibition”.

These data come from article PMC6284057, “Combined Antibacterial Effects of Goat Cathelicidins With Different Mechanisms of Action” (Frontiers in Microbiology, 2018).
